Measurements as given in patent US20230085307A1, “PYRIDAZINONE COMPOUND AND HERBICIDE” (NISSAN CHEMICAL CORPORATION, priority 2019, published 2023).

Tests used:
beet [1] = assay: Test Example 5: effect on crop by foliage application, plastic box (Table 20, symbol f); format: in vivo; conditions: 320 g/ha, three weeks after application
Description: (§1) [Test Example 5] Herbicidal Effect Test by Foliage Application
(§2) Sterilized diluvial soil was placed in a plastic box having a length of 21 cm, a width of 13 cm, and a depth of 7 cm. The seeds of each of southern crabgrass, green foxtail, barnyard grass, wild oat, blackgrass, Italian ryegrass, windgrass, velvetleaf, redroot pigweed, lambsquarters, chickweed, false cleavers, persian speedwell, corn, soybean, rice, wheat, beet, and rapeseed were sowed in a spot-like manner and covered with the soil having a thickness of about 1.5 cm. Thereafter, the plants were grown in a greenhouse at 25° C. to 30° C. After 14-day growth of the plants, the emulsion agent of the compound of the present invention prepared according to Formulation Example 2 was diluted with water so as to achieve a predetermined herbicide amount, and the diluted emulsion agent was uniformly applied to a foliage part with a small-sized spray. Three weeks after the herbicide application, the effect of the herbicide on each plant was evaluated according to the criteria of Test Example 1.

blackgrass [2] = assay: Test Example 4: herbicidal effect by soil treatment (Table 19, symbol J); format: in vivo, blackgrass (Alopecurus myosuroides); conditions: amount of applied herbicide 320 g/ha
Method in brief: (§3)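 Seeds were sown in sterilized diluvial soil and covered with about 1.5 cm of soil. An emulsion formulation diluted with water to a predetermined herbicide amount was sprayed evenly onto the soil surface. Plants grew in a greenhouse at 25° C. to 30° C., and the effect was scored three weeks after application using criteria from an earlier test.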

lambsquarters [3] = assay: Test Example 5: herbicidal effect by foliage application, plastic box (Table 20, symbol O); format: in vivo, lambsquarters (Chenopodium album); conditions: foliage application, 320 g/ha, three weeks after application
Method in brief: (§4)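 Plants sown in sterilized diluvial soil and grown 14 days in a greenhouse at 25° C to 30° C, then sprayed on the foliage with the compound's emulsion diluted in water to a predetermined herbicide amount. Injury to weeds and crops scored three weeks after application on a visual rating scale.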

green foxtail [4] = assay: Test Example 5: herbicidal effect by foliage application, plastic box (Table 20, symbol G); format: in vivo, green foxtail (Setaria viridis); conditions: foliage application, 320 g/ha, three weeks after application
Method in brief: as §4

barnyard grass [5] = assay: Test Example 5: herbicidal effect by foliage application, plastic box (Table 20, symbol H); format: in vivo, barnyard grass (Echinochloa crus-galli); conditions: foliage application, 320 g/ha, three weeks after application
Method in brief: as §4

redroot pigweed [6] = assay: Test Example 4: herbicidal effect by soil treatment (Table 19, symbol N); format: in vivo, redroot pigweed (Amaranthus retroflexus); conditions: amount of applied herbicide 320 g/ha
Method in brief: as §3

blackgrass [7] = assay: Test Example 5: herbicidal effect by foliage application, plastic box (Table 20, symbol J); format: in vivo, blackgrass (Alopecurus myosuroides); conditions: foliage application, 320 g/ha, three weeks after application
Method in brief: as §4

barnyard grass [8] = assay: Test Example 3: herbicidal effect by foliage application, Wagner pot (Table 18, symbol H); format: in vivo, barnyard grass (Echinochloa crus-galli); conditions: 320 g/ha
Method in brief: (§5)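 Plants were sown in alluvial soil held under 0.1–0.5 cm standing water and grown 14 days in a greenhouse at 25–30 °C. An emulsifiable formulation, water-diluted to the set dose, was then sprayed onto the foliage, and effects were scored three weeks later using previously defined criteria.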

wild oat [9] = assay: Test Example 5: herbicidal effect by foliage application, plastic box (Table 20, symbol I); format: in vivo, wild oat (Avena fatua); conditions: foliage application, 320 g/ha, three weeks after application
Method in brief: as §4

southern crabgrass [10] = assay: Test Example 5: herbicidal effect by foliage application, plastic box (Table 20, symbol F); format: in vivo, southern crabgrass (Digitaria ciliaris); conditions: foliage application, 320 g/ha, three weeks after application
Method in brief: as §4

rapeseed [11] = assay: Test Example 5: effect on crop by foliage application, plastic box (Table 20, symbol g); format: in vivo; conditions: 320 g/ha, three weeks after application
Description: as §1, §2

chickweed [12] = assay: Test Example 5: herbicidal effect by foliage application, plastic box (Table 20, symbol P); format: in vivo, common chickweed (Stellaria media); conditions: foliage application, 320 g/ha, three weeks after application
Method in brief: as §4

lambsquarters [13] = assay: Test Example 4: herbicidal effect by soil treatment (Table 19, symbol O); format: in vivo, lambsquarters (Chenopodium album); conditions: amount of applied herbicide 320 g/ha
Method in brief: as §3

wheat [14] = assay: Test Example 5: effect on crop by foliage application, plastic box (Table 20, symbol e); format: in vivo; conditions: 320 g/ha, three weeks after application
Description: as §1, §2

redroot pigweed [15] = assay: Test Example 5: herbicidal effect by foliage application, plastic box (Table 20, symbol N); format: in vivo, redroot pigweed (Amaranthus retroflexus); conditions: foliage application, 320 g/ha, three weeks after application
Method in brief: as §4

directly sowed rice = assay: Test Example 3: effect on crop by foliage application, Wagner pot (Table 18, symbol b); format: in vivo; conditions: 320 g/ha
Method in brief: as §5

soybean [16] = assay: Test Example 5: effect on crop by foliage application, plastic box (Table 20, symbol d); format: in vivo; conditions: 320 g/ha, three weeks after application
Method in brief: as §4

velvetleaf [17] = assay: Test Example 5: herbicidal effect by foliage application, plastic box (Table 20, symbol M); format: in vivo, velvetleaf (Abutilon theophrasti); conditions: foliage application, 320 g/ha, three weeks after application
Method in brief: as §4

soybean [18] = assay: Test Example 4: effect on crop by soil treatment (Table 19, symbol d); format: in vivo; conditions: amount of applied herbicide 320 g/ha
Method in brief: as §3

Chinese sprangletop = assay: Test Example 3: herbicidal effect by foliage application, Wagner pot (Table 18, symbol D); format: in vivo, chinese sprangletop (Leptochloa chinensis); conditions: 320 g/ha
Method in brief: as §5

barnyard grass [19] = assay: Test Example 4: herbicidal effect by soil treatment (Table 19, symbol H); format: in vivo, barnyard grass (Echinochloa crus-galli); conditions: amount of applied herbicide 320 g/ha
Method in brief: as §3

southern crabgrass [20] = assay: Test Example 4: herbicidal effect by soil treatment (Table 19, symbol F); format: in vivo, southern crabgrass (Digitaria ciliaris); conditions: amount of applied herbicide 320 g/ha
Method in brief: as §3

Italian ryegrass [21] = assay: Test Example 4: herbicidal effect by soil treatment (Table 19, symbol K); format: in vivo, Italian ryegrass (Lolium multiflorum); conditions: amount of applied herbicide 320 g/ha
Method in brief: as §3

beet [22] = assay: Test Example 4: effect on crop by soil treatment (Table 19, symbol f); format: in vivo; conditions: amount of applied herbicide 320 g/ha
Method in brief: as §3

corn [23] = assay: Test Example 4: effect on crop by soil treatment (Table 19, symbol c); format: in vivo; conditions: amount of applied herbicide 320 g/ha
Method in brief: as §3

Italian ryegrass [24] = assay: Test Example 5: herbicidal effect by foliage application, plastic box (Table 20, symbol K); format: in vivo, Italian ryegrass (Lolium multiflorum); conditions: foliage application, 320 g/ha, three weeks after application
Method in brief: as §4

chickweed [25] = assay: Test Example 4: herbicidal effect by soil treatment (Table 19, symbol P); format: in vivo, common chickweed (Stellaria media); conditions: amount of applied herbicide 320 g/ha
Method in brief: as §3

wheat [26] = assay: Test Example 4: effect on crop by soil treatment (Table 19, symbol e); format: in vivo; conditions: amount of applied herbicide 320 g/ha
Method in brief: as §3

corn [27] = assay: Test Example 5: effect on crop by foliage application, plastic box (Table 20, symbol c); format: in vivo; conditions: 320 g/ha, three weeks after application
Method in brief: as §4

rice flat sedge = assay: Test Example 3: herbicidal effect by foliage application, Wagner pot (Table 18, symbol E); format: in vivo, rice flat sedge (Cyperus iria); conditions: 320 g/ha
Method in brief: as §5

wild oat [28] = assay: Test Example 4: herbicidal effect by soil treatment (Table 19, symbol I); format: in vivo, wild oat (Avena fatua); conditions: amount of applied herbicide 320 g/ha
Method in brief: as §3

green foxtail [29] = assay: Test Example 4: herbicidal effect by soil treatment (Table 19, symbol G); format: in vivo, green foxtail (Setaria viridis); conditions: amount of applied herbicide 320 g/ha
Method in brief: as §3

persian speedwell [30] = assay: Test Example 5: herbicidal effect by foliage application, plastic box (Table 20, symbol R); format: in vivo, Persian speedwell (Veronica persica); conditions: foliage application, 320 g/ha, three weeks after application
Method in brief: as §4

windgrass [31] = assay: Test Example 5: herbicidal effect by foliage application, plastic box (Table 20, symbol L); format: in vivo, windgrass (Apera spica-venti); conditions: foliage application, 320 g/ha, three weeks after application
Method in brief: as §4

velvetleaf [32] = assay: Test Example 4: herbicidal effect by soil treatment (Table 19, symbol M); format: in vivo, velvetleaf (Abutilon theophrasti); conditions: amount of applied herbicide 320 g/ha
Method in brief: as §3

rapeseed [33] = assay: Test Example 4: effect on crop by soil treatment (Table 19, symbol g); format: in vivo; conditions: amount of applied herbicide 320 g/ha
Method in brief: as §3

persian speedwell [34] = assay: Test Example 4: herbicidal effect by soil treatment (Table 19, symbol R); format: in vivo, Persian speedwell (Veronica persica); conditions: amount of applied herbicide 320 g/ha
Method in brief: as §3

windgrass [35] = assay: Test Example 4: herbicidal effect by soil treatment (Table 19, symbol L); format: in vivo, windgrass (Apera spica-venti); conditions: amount of applied herbicide 320 g/ha
Method in brief: as §3

Structure (SMILES): COc1ccc2c(-c3c(O)c(N)nn(C)c3=O)c(-c3ccccc3OC)sc2c1 [Compound No. 3-087, 6-amino-5-hydroxy-4-(6-methoxy-2-(2-methoxyphenyl)benzo[b]thiophen-3-yl)-2-methyl pyridazin-3(2H)-one]
- f: beet, effect on crop grade (beet [1]): 4 (Herbicidal rate of 70% or more and less than 90%)
- J: blackgrass, herbicidal effect grade (blackgrass [2]): 0 (Herbicidal rate of 5% or less (almost no effect))
- O: lambsquarters, herbicidal effect grade (lambsquarters [3]): 0 (Herbicidal rate of 5% or less (almost no effect))
- G: green foxtail, herbicidal effect grade (green foxtail [4]): 0 (Herbicidal rate of 5% or less (almost no effect))
- H: barnyard grass, herbicidal effect grade (barnyard grass [5]): 3 (Herbicidal rate of 40% or more and less than 70%)
- N: redroot pigweed, herbicidal effect grade (redroot pigweed [6]): 0 (Herbicidal rate of 5% or less (almost no effect))
- J: blackgrass, herbicidal effect grade (blackgrass [7]): 4 (Herbicidal rate of 70% or more and less than 90%)
- herbicidal effect on barnyard grass (H) (barnyard grass [8]): 4 (Herbicidal rate of 70% or more and less than 90%)
- I: wild oat, herbicidal effect grade (wild oat [9]): 0 (Herbicidal rate of 5% or less (almost no effect))
- F: southern crabgrass, herbicidal effect grade (southern crabgrass [10]): 0 (Herbicidal rate of 5% or less (almost no effect))
- g: rapeseed, effect on crop grade (rapeseed [11]): 4 (Herbicidal rate of 70% or more and less than 90%)
- P: chickweed, herbicidal effect grade (chickweed [12]): 5 (Herbicidal rate of 90% or more (almost completely withered))
- O: lambsquarters, herbicidal effect grade (lambsquarters [13]): 0 (Herbicidal rate of 5% or less (almost no effect))
- e: wheat, effect on crop grade (wheat [14]): 0 (Herbicidal rate of 5% or less (almost no effect))
- N: redroot pigweed, herbicidal effect grade (redroot pigweed [15]): 1 (Herbicidal rate of 5% or more and less than 20%)
- effect on directly sowed rice (b) (directly sowed rice): 1 (Herbicidal rate of 5% or more and less than 20%)
- d: soybean, effect on crop grade (soybean [16]): 0 (Herbicidal rate of 5% or less (almost no effect))
- M: velvetleaf, herbicidal effect grade (velvetleaf [17]): 0 (Herbicidal rate of 5% or less (almost no effect))
- d: soybean, effect on crop grade (soybean [18]): 0 (Herbicidal rate of 5% or less (almost no effect))
- herbicidal effect on Chinese sprangletop (D) (Chinese sprangletop): 0 (Herbicidal rate of 5% or less (almost no effect))
- H: barnyard grass, herbicidal effect grade (barnyard grass [19]): 0 (Herbicidal rate of 5% or less (almost no effect))
- F: southern crabgrass, herbicidal effect grade (southern crabgrass [20]): 0 (Herbicidal rate of 5% or less (almost no effect))
- K: Italian ryegrass, herbicidal effect grade (Italian ryegrass [21]): 0 (Herbicidal rate of 5% or less (almost no effect))
- f: beet, effect on crop grade (beet [22]): 0 (Herbicidal rate of 5% or less (almost no effect))
- c: corn, effect on crop grade (corn [23]): 0 (Herbicidal rate of 5% or less (almost no effect))
- K: Italian ryegrass, herbicidal effect grade (Italian ryegrass [24]): 1 (Herbicidal rate of 5% or more and less than 20%)
- P: chickweed, herbicidal effect grade (chickweed [25]): 3 (Herbicidal rate of 40% or more and less than 70%)
- e: wheat, effect on crop grade (wheat [26]): 0 (Herbicidal rate of 5% or less (almost no effect))
- c: corn, effect on crop grade (corn [27]): 0 (Herbicidal rate of 5% or less (almost no effect))
- herbicidal effect on rice flat sedge (E) (rice flat sedge): 3 (Herbicidal rate of 40% or more and less than 70%)
- I: wild oat, herbicidal effect grade (wild oat [28]): 0 (Herbicidal rate of 5% or less (almost no effect))
- G: green foxtail, herbicidal effect grade (green foxtail [29]): 0 (Herbicidal rate of 5% or less (almost no effect))
- R: persian speedwell, herbicidal effect grade (persian speedwell [30]): 4 (Herbicidal rate of 70% or more and less than 90%)
- L: windgrass, herbicidal effect grade (windgrass [31]): 5 (Herbicidal rate of 90% or more (almost completely withered))
- M: velvetleaf, herbicidal effect grade (velvetleaf [32]): 0 (Herbicidal rate of 5% or less (almost no effect))
- g: rapeseed, effect on crop grade (rapeseed [33]): 0 (Herbicidal rate of 5% or less (almost no effect))
- melting point: 286 to 288 °C
- R: persian speedwell, herbicidal effect grade (persian speedwell [34]): 3 (Herbicidal rate of 40% or more and less than 70%)
- L: windgrass, herbicidal effect grade (windgrass [35]): 0 (Herbicidal rate of 5% or less (almost no effect))
